PubChem BioAssay (NCI)
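Protocol summary: plate cells (96-well), add compound at 5 concentrations, incubate 48 h, interpolate endpoints linearly. At the GI50, growth is halved. TGI is the concentration that stops growth completely.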

Columns and labels:
Assay in all cases: NCI tumour cell line growth inhibition, 48 h
OVCAR-4 ovarian = test system: OVCAR-4 ovarian
A549 NSCLC = test system: A549 NSCLC
MDA-MB-435 = test system: MDA-MB-435
IGROV1 ovarian = test system: IGROV1 ovarian
786-0 renal = test system: 786-0 renal
HT29 colon = test system: HT29 colon
OVCAR-8 ovarian = test system: OVCAR-8 ovarian
MDA-MB-231 breast = test system: MDA-MB-231 breast
LXFL 529 NSCLC = test system: LXFL 529 NSCLC
HOP-18 NSCLC = test system: HOP-18 NSCLC

SMILES | GI50 (OVCAR-4 ovarian) [µM] | TGI (OVCAR-4 ovarian) [µM] | GI50 (A549 NSCLC) [µM] | TGI (A549 NSCLC) [µM] | GI50 (MDA-MB-435) [µM] | TGI (MDA-MB-435) [µM] | GI50 (IGROV1 ovarian) [µM] | TGI (IGROV1 ovarian) [µM] | GI50 (786-0 renal) [µM] | TGI (786-0 renal) [µM] | GI50 (HT29 colon) [µM] | TGI (HT29 colon) [µM] | GI50 (OVCAR-8 ovarian) [µM] | TGI (OVCAR-8 ovarian) [µM] | GI50 (MDA-MB-231 breast) [µM] | TGI (MDA-MB-231 breast) [µM] | TGI (LXFL 529 NSCLC) [µM] | TGI (HOP-18 NSCLC) [µM] | GI50 (LXFL 529 NSCLC) [µM]
C=C1[C@H](O)C[C@@H](C(C)C(O)CC=C(C)C)[C@@H](O)[C@@H]2C(C)=CC[C@@H]12 (stereo not given in full) | > 100 | > 100 | > 100 | > 100 | > 100 | > 100 | > 100 | > 100 | > 100 | > 100 | > 100 | > 100 | > 100 | > 100 | > 100 | > 100 |  |  | 
OCC1OC(N2CCN(C3OC(CO)C(O)C(O)C3O)CC2)C(O)C(O)C1O (stereo not given) |  | > 100 |  | > 100 |  | > 100 |  | > 100 |  | > 100 |  | > 100 |  | > 100 |  | > 100 |  |  | 
Oc1ccccc1-c1cnnc(-c2ccccc2O)c1 |  | > 100 |  |  |  |  |  |  |  | 36.6 |  | 64.3 |  | 57.4 |  |  | 58.2 | 96.6 | 
O=C(Nc1ccn(C2CCC(COC(c3ccccc3)(c3ccccc3)c3ccccc3)O2)c(=O)n1)c1ccccc1 (stereo not given) |  | 7.71 |  | 13 |  | 10.6 |  | 13.4 |  | 6.41 |  | 6.09 |  | 10.1 |  | 13.9 |  |  | 
C=C1CC2(CC(c3ccccc3C)OC(c3ccccc3C)C2)OC1=O (stereo not given) |  | 5.49 |  | 19.4 |  | 3.13 |  | 3.25 |  | 4.74 |  | 3.53 |  | 4.63 |  | 3.17 |  |  | 
CCCCCCCC(=O)[O-].N.N.N.N.N.[Co+3].[O-][Cl+3]([O-])([O-])[O-] | > 100 | > 100 | > 100 | > 100 |  |  | > 100 | > 100 | > 100 | > 100 | > 100 | > 100 | > 100 | > 100 |  |  | > 100 |  | > 100
C/C(COc1ccccc1)=N\NC(N)=S |  | > 100 |  | > 100 |  |  |  | > 100 |  | > 100 |  | > 100 |  | > 100 |  |  | > 100 |  | 
NC(=O)C1CCCN1Cc1ccc2c(c1)OCO2 (stereo not given) |  | > 100 |  | > 100 |  | > 100 |  | > 100 |  | > 100 |  | > 100 |  | > 100 |  | > 100 |  |  | 
CCN(CC(O)COc1ccc2c(c1)[n+]([O-])nc(N)[n+]2[O-])C(C)=O (stereo not given) |  | > 100 |  | > 100 |  | > 100 |  | > 100 |  | > 100 |  | > 100 |  | > 100 |  | > 100 |  |  | 
CC(=O)OCc1cc[c]([Hg][Cl])o1 | 12.7 | 43 | 21.8 | 43.2 | 3.54 | 15.5 | 3.14 | 10.4 | 3.88 | 13.2 | 5.61 | 26.3 | 11.4 | 57.7 | 2.59 | 7.81 |  |  | 
C#Cc1cccc(NC(=O)C2CCCCN2C(=O)CCl)c1 (stereo not given) | 8.77 | 24.5 | > 82.5 | > 82.5 | 15.8 | 60.7 | 9.72 | 27.1 | 16.2 | 32 | 18.7 | 41.9 | 20.3 | > 82.5 | 13.1 | 28.7 |  |  | 
